Patent US11780868B1, “Homoleptic metal coordination complexes as antifungal agents” (King Abdulaziz University, priority 2023, dated 2023)

How the values were obtained:
[1] = system: C. albicans 4251; test: Cell count and viability assay (Muse cell analyser); format: cell-based, Candida albicans; conditions: C. albicans 4251 (Flz susceptible), C1 at MFC, 24 h; untreated 90.9%
Description: (§1) Quantification of Live/Dead C. albicans cells in response to C1 was carried out. The actual count of viable and dead cells of C. albicans by treatment of C1 was monitored by Cell Count and Viability assay kit. An inoculum (1×10^6 cells/mL) of both Flz sensitive (C. albicans 4251) and resistant (C. albicans 5112) C. albicans strains was prepared followed by treatment with various concentrations of C1 (0.5×MIC, 1×MIC and MFC) for 24 h at 37° C. and 150 rpm. For the negative control, only inoculum treated with 1% DMSO was used and for the positive control, hydrogen peroxide (10 mM) was used in a 1:1 ratio with the inoculum. Following incubation, the cells were then washed in PBS and centrifuged at 4000 rpm for 5 minutes at 4° C. and the final pellet was resuspended in PBS. The Cell Count and Viability assay samples were prepared by mixing 190 μL of Luminex Cell Viability Dilution Buffer and 10 μL of the sample in a 1.5 mL Eppendorf tube and incubated in the dark for 5 min at room temperature. All samples were analysed by a Guava® Muse® Cell Analyser (Luminex A DiaSorin Company, USA).

[2] = system: C. albicans 5112; test: as above; format: cell-based, Candida albicans; conditions: C. albicans 5112 (Flz resistant), C1 at MFC, 24 h; untreated 86.8%
Description: as §1

[3] = system: cytochrome c oxidase; test: Cytochrome c oxidase activity assay; format: cell-based
Description: To examine the effect of C1 on the induction of cellular apoptosis in C. albicans cells, crucial apoptotic markers were observed. For this purpose, C. albicans 4251 and C. albicans 5112 cells were subjected to protoplast preparation by utilizing a method described previously by Srivastava et al. in 2020 through their research study. Briefly, cells were grown overnight and were exposed for 4 h with different concentrations of C1 (0.5×MIC and 1×MIC) and H2O2 (positive control) whereas, untreated cells were used as a negative control. Later on, the cells were washed and incubated for 10 min at room temperature in protoplast buffer-1 (1M sorbitol, 0.05M tris base, 0.01M MgCl2, 0.03M DTT, pH 7.4). The cells were spun at 1500 rpm for 5 min and the pellet was resuspended in protoplast buffer-2 (1M sorbitol, 0.05M tris base, 0.01M MgCl2, 0.001M DTT, pH 7.4) supplemented with lyticase enzyme (1 μg/mL) and incubated for 1 h at room temperature. Afterwards, the cell suspension was again centrifuged, and the pellet was resuspended and incubated for 20 min at room temperature in protoplast buffer-3 (1M sorbitol, 0.05M tris base, 0.01M MgCl2, pH 7.4). A final washing (1500 rpm for 5 min) was given to the cells and the pellet consisting of C. albicans protoplasts was resuspended in fresh PBS and was stored at 4° C. until further use.
The role of C1 in the modulating cytochrome c oxidase activity in C. albicans was investigated. The mitochondria from C. albicans 4251 and C. albicans 5112 were isolated using Yeast Mitochondria Isolation Kit—MITOISO3 (Sigma-Aldrich St. Louis, MO, U.S.A.) and then the Cytochrome c oxidase assay kit (ScienCell, Cat. No. 8278, CA, USA) was used to detect the cytochrome c oxidase activity in the cells following the manufacturer's instructions. Briefly, the C. albicans protoplasts were homogenized and the homogenate was resuspended and centrifuged in storage buffer (1×, 1 mL) at 6,500×g at 4° C. (10 min). The supernatant was discarded and resuspended in 200 μL of storage buffer (1×). The TCA Lowry method was utilized for determining the protein concentration present in the sample. Later on, the estimation of cytochrome c oxidase activity was done by preparing an assay mixture (Assay Buffer, 940 μL; n-dodecyl β-D-maltoside solution, 10 μL; mitochondrial protein, 2 μg) in a cuvette and then adding cytochrome c substrate solution (50 μL, provided in the kit) to it. Any change in absorbance was measured on a kinetic program (550 nm; every 30 seconds with an interval of 5 seconds) by using a spectrophotometer (UV-1800, Shimadzu Corporation, Japan).

[4] = system: C. albicans 4251; test: JC-10 mitochondrial membrane potential assay; format: cell-based, Candida albicans; conditions: 4 h, negative control 2.65
Description: (§2) To examine the effect of C1 on the induction of cellular apoptosis in C. albicans cells, crucial apoptotic markers were observed. For this purpose, C. albicans 4251 and C. albicans 5112 cells were subjected to protoplast preparation by utilizing a method described previously by Srivastava et al. in 2020 through their research study. […] Later on, the cells were washed and incubated for 10 min at room temperature in protoplast buffer-1 (1M sorbitol, 0.05M tris base, 0.01M MgCl2, 0.03M DTT, pH 7.4). The cells were spun at 1500 rpm for 5 min and the pellet was resuspended in protoplast buffer-2 (1M sorbitol, 0.05M tris base, 0.01M MgCl2, 0.001M DTT, pH 7.4) supplemented with […] enzyme (1 μg/mL) and incubated for 1 h at room temperature. Afterwards, the cell suspension was again centrifuged, and the pellet was resuspended and incubated for 20 min at room temperature in protoplast buffer-3 (1M sorbitol, 0.05M tris base, 0.01M MgCl2, pH 7.4). A final washing (1500 rpm for 5 min) was given to the cells and the pellet consisting of C. albicans protoplasts was resuspended in fresh PBS and was stored at 4° C. until further use. Measurement of mitochondrial membrane potential in C. albicans was carried out and the potential of C1 in destabilising mitochondrial membrane potential (Δψm) in C. albicans was established by JC-10 mitochondrial membrane potential assay kit (Abeam, Cambridge, UK). The experiment was performed according to manufacturer instructions. 90 μL of prepared protoplast of C. albicans 4251 and C. albicans 5112 was added to a 96-well microplate (with black walls and clear bottom), followed by the addition of 50 μL/well of JC-10 dye-loading solution. The microplate was incubated for 1 hour at 37° C. in the dark. This was followed by the addition of 50 μL/well of assay buffer B. The microplate was then immediately centrifuged at 800 rpm for 2 minutes. The fluorescence intensity was monitored at an Ex/Em=490/530 nm (present in apoptotic cells, monomeric form and green fluorescence; represented as X) and 540/590 nm (present in live cells, dye aggregates and red fluorescence; represented as Y) using a SpectraMax® ID3 Multimode Plate Reader (Molecular Devices, LLC., USA). The ratio between the aggregate and monomeric forms was measured to find the change in mitochondrial membrane potential. The mitochondrial membrane depolarization is indicated by decreasing ratio values.

[5] = system: C. albicans 5112; test: JC-10 mitochondrial membrane potential assay; format: cell-based, Candida albicans; conditions: 4 h, negative control 2.92
Description: as §2

Brc1ccc([O][Co][O]c2ccc(Br)cc2C=Nc2ccc3c(c2)OCCO3)c(C=Nc2ccc3c(c2)OCCO3)c1 [Complex C1, [Co(L)2]]
live cells [1]: 4.3%
live cells [2]: 8.4%
average percent decrease in cytochrome c oxidase activity ([3]; Flz resistant strain (C. albicans 5112), 0.5×MIC): 14.2%
average percent decrease in cytochrome c oxidase activity ([3]; Flz resistant strain (C. albicans 5112), 1×MIC): 47.53%
average percent decrease in cytochrome c oxidase activity ([3]; Flz sensitive strain (C. albicans 4251), 0.5×MIC): 22.61%
average percent decrease in cytochrome c oxidase activity ([3]; Flz sensitive strain (C. albicans 4251), 1×MIC): 51.3%
average fluorescence ratio JC-10 aggregates/JC-10 monomers ([4]; C. albicans 4251, 0.5×MIC): 2.04
average fluorescence ratio JC-10 aggregates/JC-10 monomers ([4]; C. albicans 4251, 1×MIC): 1.6
average fluorescence ratio JC-10 aggregates/JC-10 monomers ([5]; C. albicans 5112, 0.5×MIC): 2.24
average fluorescence ratio JC-10 aggregates/JC-10 monomers ([5]; C. albicans 5112, 1×MIC): 1.71
